14 molecules from PubChem BioAssay AID260 (DTP/NCI, 2004) can be followed below.

SMILES strings stand for the structures. Where “and” joins values, the source holds several entries; their conditions need not be identical. Equal values may be shown once. Toxic doses and inconclusive results are not listed.

The subject of the test is CD2F1 mice, intracerebral L1210 leukemia, survival T/C. Put plainly: NCI In Vivo Anticancer Drug Screen. Data for tumor model L1210 Leukemia (intracerebral) in CD2F1 (CDF1) mice. Conditions: higher = longer survival. The procedure: The antitumor activity of compounds was measured in mice bearing transplantable tumors. Survival or tumor size were measured and the results are expressed as the measurement made in the treated group (T) divided by the measurement made in the vehicle treated control group (C). The tumor model used in this assay is L1210 Leukemia (intracerebral) in CD2F1 (CDF1) mice

Setting [1] is: endpoint: median survival time, dose: 12.5 mg/kg/injection, schedule: Q01DX009 (ip), vehicle: saline.
The mark [2] stands for this setting: endpoint: median survival time, dose: 50.0 mg/kg/injection, schedule: Q01DX009 (ip), vehicle: saline.

With `CN(Cc1cnc2nc(N)nc(N)c2n1)c1ccc(C(=O)N[C@@H](CCC(=O)O)C(=O)O)cc1`, the T/C (endpoint: median survival time, dose: 1.2 mg/kg/injection, schedule: Q04DX003 (ip), vehicle: saline) is 114 % of control; the T/C (endpoint: median survival time, dose: 2.3 mg/kg/injection, schedule: Q04DX003 (ip), vehicle: saline) was 121 % of control; the T/C (endpoint: median survival time, dose: 18.4 mg/kg/injection, schedule: Q04DX003 (ip), vehicle: saline) is 164 % of control; the T/C (endpoint: median survival time, dose: 36.8 mg/kg/injection, schedule: Q04DX003 (ip), vehicle: saline) was 164 % of control.
In the case of `C[n+]1c2ccccc2nc2c(N)cc(N)cc21`, the T/C reads like this: (endpoint: median survival time, dose: 4.0 mg/kg/injection, schedule: Q01DX005 (ip), vehicle: suspension in saline) 93 % of control and 98 % of control; (endpoint: median survival time, dose: 8.0 mg/kg/injection, schedule: Q01DX005 (ip), vehicle: suspension in saline) 102 % of control; (endpoint: median survival time, dose: 16.0 mg/kg/injection, schedule: Q01DX005 (ip), vehicle: suspension in saline) 96 % of control and 98 % of control; (endpoint: median survival time, dose: 32.0 mg/kg/injection, schedule: Q01DX005 (ip), vehicle: suspension in saline) 96 % of control and 97 % of control.
In the case of `N=C(N)SCc1c2ccccc2c(CSC(=N)N)c2ccccc12`, the T/C is, setting by setting: (endpoint: mean survival time, dose: 50.0 mg/kg/injection, schedule: Q01DX009 (ip), vehicle: saline) 103 % of control; (endpoint: mean survival time, dose: 100.0 mg/kg/injection, schedule: Q01DX009 (ip), vehicle: saline) 124 % of control; (endpoint: mean survival time, dose: 200.0 mg/kg/injection, schedule: Q01DX009 (ip), vehicle: saline) 88 % of control; (endpoint: median survival time, dose: 2.5 mg/kg/injection, schedule: Q01DX005 (ip), vehicle: Klucel (hydroxypropylcellulose) (HPC)) 93 % of control and 98 % of control; (endpoint: median survival time, dose: 5.0 mg/kg/injection, schedule: Q01DX005 (ip), vehicle: Klucel (hydroxypropylcellulose) (HPC)) 97 % of control and 112 % of control; (endpoint: median survival time, dose: 10.0 mg/kg/injection, schedule: Q01DX005 (ip), vehicle: Klucel (hydroxypropylcellulose) (HPC)) 103 % of control and 115 % of control. Where the note is “endpoint: median survival time, dose: 20.0 mg/kg/injection, schedule: Q01DX005 (ip), vehicle: Klucel (hydroxypropylcellulose) (HPC)”, the T/C was 103 % of control and 112 % of control.
For `CN(C)N=Nc1ccc(Cl)cc1`, the T/C is 90 % of control (endpoint: mean survival time, dose: 10.0 mg/kg/injection, schedule: Q01DX007 (ip), vehicle: DMSO); 91 % of control (endpoint: mean survival time, dose: 20.0 mg/kg/injection, schedule: Q01DX007 (ip), vehicle: DMSO); 108 % of control (endpoint: mean survival time, dose: 40.0 mg/kg/injection, schedule: Q01DX007 (ip), vehicle: DMSO); 87 % of control (endpoint: mean survival time, dose: 80.0 mg/kg/injection, schedule: Q01DX007 (ip), vehicle: DMSO); 91 % of control (endpoint: mean survival time, dose: 120.0 mg/kg/injection, schedule: Q01DX007 (ip), vehicle: DMSO).
With `CNc1nc(N(C)C)nc(N(C)C)n1`, the T/C under setting [1] is 98 % of control and 114 % of control.
Take `O=C1c2ccccc2C(=O)c2c(NCCNCCO)ccc(NCCNCCO)c21`: the T/C runs as follows: (endpoint: median survival time, dose: 4.0 mg/kg/injection, schedule: Q01DX009 (ip), vehicle: saline with Tween-80) 118 % of control; (endpoint: median survival time, dose: 4.0 mg/kg/injection, schedule: Q01DX009 (ip), vehicle: saline) 102 % of control and 111 % of control; (endpoint: median survival time, dose: 8.0 mg/kg/injection, schedule: Q01DX009 (ip), vehicle: saline) 119 % of control and 102 % of control; (endpoint: median survival time, dose: 16.0 mg/kg/injection, schedule: Q01DX009 (ip), vehicle: saline) 121 % of control and 124 % of control; (endpoint: median survival time, dose: 32.0 mg/kg/injection, schedule: Q01DX009 (ip), vehicle: saline with Tween-80) 97 % of control; (endpoint: median survival time, dose: 32.0 mg/kg/injection, schedule: Q01DX009 (ip), vehicle: saline) 103 % of control.
For the molecule `C[n+]1ccc(Nc2ccc(NC(=O)c3ccc(Nc4cc[n+](C)c5ccc(N)cc45)cc3N)cc2)cc1`, the T/C (endpoint: mean survival time, dose: 1.0 mg/kg/injection, schedule: Q01DX009 (ip), vehicle: saline) is 103 % of control; the T/C (endpoint: mean survival time, dose: 2.0 mg/kg/injection, schedule: Q01DX009 (ip), vehicle: saline) was 117 % of control; the T/C (endpoint: mean survival time, dose: 4.0 mg/kg/injection, schedule: Q01DX009 (ip), vehicle: saline) is 119 % of control; the T/C (endpoint: mean survival time, dose: 8.0 mg/kg/injection, schedule: Q01DX009 (ip), vehicle: saline) is 120 % of control; the T/C (endpoint: mean survival time, dose: 16.0 mg/kg/injection, schedule: Q01DX009 (ip), vehicle: saline) was 123 % of control.
Turning to `O=C1C=CN(C2OC(CO)C(O)C2O)C(=O)C1` (centres undefined), the T/C is 150 % of control (endpoint: mean survival time, dose: 33.0 mg/kg/injection, schedule: Q01DX009 (ip), vehicle: saline); 116 % of control (endpoint: median survival time, dose: 100.0 mg/kg/injection, schedule: Q01DX009 (ip), vehicle: saline); 105 % of control (endpoint: median survival time, dose: 200.0 mg/kg/injection, schedule: Q01DX009 (ip), vehicle: saline); 107 % of control (endpoint: median survival time, dose: 400.0 mg/kg/injection, schedule: Q01DX009 (ip), vehicle: saline).
For `O=S1(=O)CS(=O)(=O)OCCO1`, the T/C (endpoint: median survival time, dose: 3.13 mg/kg/injection, schedule: Q01DX009 (ip), vehicle: Klucel (hydroxypropylcellulose) (HPC)) is 122 % of control; the T/C (endpoint: median survival time, dose: 12.5 mg/kg/injection, schedule: Q01DX009 (ip), vehicle: Klucel (hydroxypropylcellulose) (HPC)) was 170 % of control; the T/C (endpoint: median survival time, dose: 25.0 mg/kg/injection, schedule: Q01DX009 (ip), vehicle: Klucel (hydroxypropylcellulose) (HPC)) is 182 % of control; the T/C (endpoint: median survival time, dose: 50.0 mg/kg/injection, schedule: Q01DX009 (ip), vehicle: Klucel (hydroxypropylcellulose) (HPC)) is 200 % of control.
Regarding `O=c1n(CC2CO2)c(=O)n(CC2CO2)c(=O)n1CC1CO1` (centres undefined), the T/C (endpoint: median survival time, dose: 16.4 mg/kg/injection, schedule: Q01DX009 (ip), vehicle: saline) is 123 % of control; the T/C (endpoint: median survival time, dose: 20.5 mg/kg/injection, schedule: Q01DX009 (ip), vehicle: saline) was 115 % of control; the T/C (endpoint: median survival time, dose: 40.0 mg/kg/injection, schedule: Q01DX009 (ip), vehicle: saline) is 152 % of control; the T/C (endpoint: median survival time, dose: 49.2 mg/kg/injection, schedule: Q01DX001 (ip), vehicle: saline) is 114 % of control; the T/C under setting [2] was 110 % of control and 116 % of control; the T/C (endpoint: median survival time, dose: 61.4 mg/kg/injection, schedule: Q01DX001 (ip), vehicle: saline) was 114 % of control. The T/C was 109 % of control (endpoint: median survival time, dose: 70.0 mg/kg/injection, schedule: Q01DX009 (ip), vehicle: saline); 116 % of control (endpoint: median survival time, dose: 76.8 mg/kg/injection, schedule: Q01DX001 (ip), vehicle: saline); 107 % of control (endpoint: median survival time, dose: 80.0 mg/kg/injection, schedule: Q01DX009 (ip), vehicle: saline); 119 % of control (endpoint: median survival time, dose: 90.0 mg/kg/injection, schedule: Q01DX009 (ip), vehicle: saline); 117 % of control (endpoint: median survival time, dose: 180.0 mg/kg/injection, schedule: Q01DX009 (ip), vehicle: saline).
Regarding `CS(=O)(=O)CS(=O)(=O)OCCCl`, the T/C runs as follows: (endpoint: median survival time, dose: 6.25 mg/kg/injection, schedule: Q01DX009 (ip), vehicle: saline) 104 % of control; under setting [1], 112 % of control; under setting [2], 209 % of control.
Take `CS(C)=O`: the T/C is 101 % of control and 106 % of control (endpoint: median survival time, dose: 1000.0 mg/kg/injection, schedule: Q01DX005 (ip), vehicle: saline); 104 % of control (endpoint: median survival time, dose: 1.5 grams/kg/injection, schedule: Q01DX009 (ip), vehicle: saline); 98 % of control and 102 % of control (endpoint: median survival time, dose: 2000.0 mg/kg/injection, schedule: Q01DX005 (ip), vehicle: saline); 102 % of control (endpoint: median survival time, dose: 3.0 grams/kg/injection, schedule: Q01DX009 (ip), vehicle: saline); 98 % of control and 102 % of control (endpoint: median survival time, dose: 4000.0 mg/kg/injection, schedule: Q01DX005 (ip), vehicle: saline); 104 % of control and 107 % of control (endpoint: median survival time, dose: 6.0 grams/kg/injection, schedule: Q01DX009 (ip), vehicle: saline). Further, the T/C (endpoint: median survival time, dose: 8000.0 mg/kg/injection, schedule: Q01DX005 (ip), vehicle: saline) is 118 % of control and 107 % of control.
Turning to `CC(CN1CC(=O)NC(=O)C1)N1CC(=O)NC(=O)C1` (centres undefined), the T/C (endpoint: mean survival time, dose: 8.0 mg/kg/injection, schedule: Q01DX009 (ip), vehicle: Klucel (hydroxypropylcellulose) (HPC)) is 123 % of control; the T/C (endpoint: mean survival time, dose: 32.0 mg/kg/injection, schedule: Q01DX009 (ip), vehicle: Klucel (hydroxypropylcellulose) (HPC)) is 152 % of control; the T/C (endpoint: mean survival time, dose: 64.0 mg/kg/injection, schedule: Q01DX009 (ip), vehicle: Klucel (hydroxypropylcellulose) (HPC)) was 163 % of control; the T/C (endpoint: mean survival time, dose: 200.0 mg/kg/injection, schedule: Q04DX003 (ip), vehicle: steriod suspending solution) is 162 % of control.
Regarding `N=[N+]=CC(=O)CCC(NC(=O)C(CCC(=O)C=[N+]=N)NC(=O)CCC(N)C(=O)O)C(=O)O` (centres undefined), the T/C was 95 % of control and 100 % of control (endpoint: median survival time, dose: 0.05 mg/kg/injection, schedule: Q01DX005 (ip), vehicle: Klucel (hydroxypropylcellulose) (HPC)); 93 % of control and 100 % of control (endpoint: median survival time, dose: 0.1 mg/kg/injection, schedule: Q01DX005 (ip), vehicle: Klucel (hydroxypropylcellulose) (HPC)); 96 % of control and 102 % of control (endpoint: median survival time, dose: 0.2 mg/kg/injection, schedule: Q01DX005 (ip), vehicle: Klucel (hydroxypropylcellulose) (HPC)); 94 % of control and 100 % of control (endpoint: median survival time, dose: 0.4 mg/kg/injection, schedule: Q01DX005 (ip), vehicle: Klucel (hydroxypropylcellulose) (HPC)).
